The target of experiment [1] is T1, PARP1 (Homo sapiens, UniProt P09874). The experiment is described as follows: PARP trapping assay in U2OS cells. It is filed as cell-based. More on the design: endogenous in cells; host or cells: U2OS. In short, it runs like this: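 U2OS cells co-treated with compounds and MMS for 4 h, then soluble proteins extracted with 0.5% Triton X-100, MeOH-fixed and immunostained for PARP1. Chromatin-bound PARP1 quantified as AF488 intensity per DAPI-segmented nucleus; potencies reported as letter-code bins.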
Target sequence in this assay (P09874 whole entry): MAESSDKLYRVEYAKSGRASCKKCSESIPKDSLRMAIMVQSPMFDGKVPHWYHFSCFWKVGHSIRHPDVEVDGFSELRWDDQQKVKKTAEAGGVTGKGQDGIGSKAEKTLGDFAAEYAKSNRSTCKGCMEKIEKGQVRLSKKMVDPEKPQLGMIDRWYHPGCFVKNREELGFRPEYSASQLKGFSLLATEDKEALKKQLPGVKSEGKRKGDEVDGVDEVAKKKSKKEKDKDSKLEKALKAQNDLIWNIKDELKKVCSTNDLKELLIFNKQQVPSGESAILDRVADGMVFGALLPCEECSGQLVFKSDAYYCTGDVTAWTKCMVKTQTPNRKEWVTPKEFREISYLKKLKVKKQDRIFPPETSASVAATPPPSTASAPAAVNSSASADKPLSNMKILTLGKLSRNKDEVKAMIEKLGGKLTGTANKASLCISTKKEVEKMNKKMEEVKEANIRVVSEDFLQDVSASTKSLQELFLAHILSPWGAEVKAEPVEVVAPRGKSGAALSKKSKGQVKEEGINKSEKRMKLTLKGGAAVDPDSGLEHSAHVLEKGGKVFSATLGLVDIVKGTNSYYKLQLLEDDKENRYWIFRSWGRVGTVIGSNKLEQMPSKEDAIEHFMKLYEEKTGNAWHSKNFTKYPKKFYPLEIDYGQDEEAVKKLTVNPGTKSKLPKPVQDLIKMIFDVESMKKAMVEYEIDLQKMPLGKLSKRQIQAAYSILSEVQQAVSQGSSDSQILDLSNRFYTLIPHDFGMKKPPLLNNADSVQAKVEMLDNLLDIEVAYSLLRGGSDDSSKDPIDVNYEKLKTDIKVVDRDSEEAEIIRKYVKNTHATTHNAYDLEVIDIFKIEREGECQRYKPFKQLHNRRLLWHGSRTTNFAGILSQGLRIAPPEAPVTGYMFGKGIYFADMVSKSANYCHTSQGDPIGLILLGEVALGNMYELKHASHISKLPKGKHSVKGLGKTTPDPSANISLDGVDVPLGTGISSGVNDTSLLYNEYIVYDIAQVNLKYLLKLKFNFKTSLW

The test system of experiment [2] is Poly/Mono-ADP Ribose in U2OS cells. The experiment is described as follows: PAR in cell western assay (parylation) in U2OS cells. The note with it: read-out: Parylation (U2OS). It is filed as cell-based. Put shortly:
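U2OS cells treated with compound for 6 h, then 2 mM H2O2 for 10 min to induce DNA damage. After methanol fixation, cells stained overnight at 4 °C with anti-mono/poly-ADP-ribose antibody and imaged by infrared in-cell western, normalized to CellTag 700; reported as % control inhibition.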

In experiment [3] the test system is MDA-MB-436 cells. The experiment in a line: Cell proliferation assay (MDA-MB-436). It is filed as cell-based. Particulars: 7 days.
For experiment [4], the system named is A2780 cells. The experiment in a line: Cell proliferation assay (A2780). It is filed as cell-based. The note with it: 7 days.
Experiment [5] concerns the target T1, PARP1. The experiment is described as follows: PARP1-enzyme assay (NAD/NADH-Glo biochemical assay). The note with it: recombinant PARP1, NAD+ consumption. As for the experimental part: The PARP enzyme catalyzes the transfer of ADP-Ribose from NAD+ onto PAR chains/histone substrates. The catalytic cycle is monitored indirectly with the NAD/NADH-Glo Assay kit from Promega. […] NAD+ consumed is determined by comparison to the no enzyme control.
• Recombinant PARP1 • NAD+/NAHD-Glow assay Kit • Activated DNA, 10 μg/mL • NAD+(Nicotinamide Adenine Dinucleotide), 500 nM • Protein substrate for PARP1: Core Histone from chicken, 10 μg/mL
The letter codes for the PARP1-enzyme assay include: A (<1 nM), B (>1-10 nM), C (>10-100 nM), D (>100-1000 nM), E (>1000 nM), and “-” is not tested. The letter codes for the PARP trapping assay, and parylation assay include: A (<10 nM), B (>10-100 nM), C (>100-1000 nM), […], E (>10000 nM), and “-” is not tested.
Target sequence in this assay (P09874 whole entry, species assumed): as the sequence (P09874 whole entry) above

The subject of experiment [6] is HCC1806 cells. The experiment in a line: Cell proliferation assay (HCC1806). It is filed as cell-based. The note with it: Homo sapiens, 168 h, 7 days.
Where [7] appears, read: U2OS cells, MMS, 4 hrs, read-out: PARP Trapping (U2OS).
Where [8] appears, read: Homo sapiens, U2OS cells, 6 hrs, 2 mM H2O2.

Where two headings read alike, the source gives them in different places.

Regarding `CCc1cccc(-c2cnc(C(=O)N3CCC(CN4CCN(CC(=O)N5CCN(C(=O)c6cc(Cc7n[nH]c(=O)c8ccccc78)ccc6F)CC5)CC4)CC3)c(NC(=O)CNCc3cccc(C)c3)c2)c1` [Compound I-61], the IC50 in experiment [1] (setting [7]) was 0.01 to 0.1 µM; in experiment [2] (setting [8]), 0.1 to 1 µM; in experiment [3] (Homo sapiens, 168 h) it was 0.01 to 0.1 µM; in experiment [4] (Homo sapiens, 168 h) it was 0.1 to 1 µM; in experiment [5] it was less than 0.001 µM.

Regarding `CCc1cccc(-c2cnc(C(=O)N3CCC(CN4CCN(CC(=O)N5CCN(C(=O)c6cc(Cc7n[nH]c(=O)c8ccccc78)ccc6F)CC5)CC4)CC3)c(NC3CC3)c2)c1` [Compound I-407], the IC50 in experiment [1] (setting [7]) is 0.01 to 0.1 µM; in experiment [2] (setting [8]), 0.01 to 0.1 µM; in experiment [3] (Homo sapiens, 168 h), less than 0.01 µM; in experiment [4] (Homo sapiens, 168 h), 0.01 to 0.1 µM; in experiment [5], less than 0.001 µM.

`O=C(N[C@@H](C(=O)N1CCN(CC2CCN(CC(=O)N3CCN(C(=O)c4cc(Cc5n[nH]c(=O)c6ccccc56)ccc4F)CC3)CC2)CC1)C1CCCCC1)c1cccc([C@H]2CCCN(C(=O)CNCc3ccc(F)cc3F)C2)c1` [Compound I-294]: the IC50 in experiment [1] (setting [7]) is 0.1 to 1 µM; in experiment [2] (setting [8]), 0.01 to 0.1 µM; in experiment [3] (Homo sapiens, 168 h), 0.01 to 0.1 µM; in experiment [4] (Homo sapiens, 168 h), 0.1 to 1 µM; in experiment [5] it was 0.001 to 0.01 µM.

In the case of `CCc1cccc(-c2cnc(C(=O)N3CCC(CN4CCN(CC(=O)N5CCN(C(=O)c6cc(Cc7n[nH]c(=O)c8ccccc78)ccc6F)CC5)CC4)CC3)c(NC(=O)CNCc3ccc(F)cc3F)c2)c1` [Compound I-331], the IC50 in experiment [1] (setting [7]) is 0.1 to 1 µM; in experiment [2] (setting [8]) it was 0.01 to 0.1 µM; in experiment [3] (Homo sapiens, 168 h) it was 0.01 to 0.1 µM; in experiment [4] (Homo sapiens, 168 h) it was 0.01 to 0.1 µM; in experiment [5], less than 0.001 µM.

Consider `O=C(CNC1CC1)N1CCCC(c2cccc(C(=O)N3CCN(CC45CCC(C(=O)N6CCN(C(=O)c7cc(Cc8n[nH]c(=O)c9ccccc89)ccc7F)CC6)(CC4)CO5)CC3)c2)C1` (centres unmarked) [Compound I-377], for which the IC50 is 0.01 to 0.1 µM in experiment [1] (setting [7]); 0.01 to 0.1 µM in experiment [2] (setting [8]); less than 0.01 µM in experiment [3] (Homo sapiens, 168 h); 0.01 to 0.1 µM in experiment [4] (Homo sapiens, 168 h); less than 0.001 µM in experiment [5].

As for `O=C(N[C@@H](C(=O)N1CCN(CC2CCN(CC(=O)N3CCN(C(=O)c4cc(Cc5n[nH]c(=O)c6ccccc56)ccc4F)CC3)CC2)CC1)C1CCCCC1)c1cccc(C2CCCN(C(=O)COC3CC3)C2)c1` (some centres unmarked) [Compound I-353], the IC50 in experiment [1] (setting [7]) was 0.1 to 1 µM; in experiment [2] (setting [8]) it was 0.1 to 1 µM; in experiment [3] (Homo sapiens, 168 h), 0.01 to 0.1 µM; in experiment [4] (Homo sapiens, 168 h) it was 0.1 to 1 µM; in experiment [5], less than 0.001 µM.

For the compound `O=C(N[C@@H](C(=O)N1CCN(CC2CCN(CC(=O)N3CCN(C(=O)c4cc(Cc5n[nH]c(=O)c6ccccc56)ccc4F)CC3)CC2)CC1)C1CCCCC1)c1cc(C2CCCN(C(=O)CNC3CC3)C2)ccc1F` (some centres unmarked) [Compound I-323], the IC50 in experiment [1] is 0.1 to 1 µM; in experiment [2] (Homo sapiens, U2OS, 6 h) it was 0.1 to 1 µM; in experiment [3] (Homo sapiens, 168 h), less than 0.01 µM; in experiment [4] (Homo sapiens, 168 h), 0.1 to 1 µM; in experiment [5] it was less than 0.001 µM.

As for `CCOc1cc(OC)ccc1COCC(=O)N1CCCC(c2cccc(C(=O)N[C@@H](C(=O)N3CCN(CC4CCN(CC(=O)N5CCN(C(=O)c6cc(Cc7n[nH]c(=O)c8ccccc78)ccc6F)CC5)CC4)CC3)C3CCCCC3)c2)C1` (some centres unmarked) [Compound I-354], the IC50 in experiment [1] (setting [7]) is 0.01 to 0.1 µM; in experiment [2] (setting [8]) it was 0.1 to 1 µM; in experiment [3] (Homo sapiens, 168 h), 0.01 to 0.1 µM; in experiment [4] (Homo sapiens, 168 h) it was 0.01 to 0.1 µM; in experiment [5], less than 0.001 µM.

On to `O=C(N[C@@H](C(=O)N1CCN(CC2CCN(CC(=O)N3CCN(C(=O)c4cc(Cc5n[nH]c(=O)c6ccccc56)ccc4F)CC3)CC2)CC1)C1CCCCC1)c1cc(C2CCCN(C(=O)CNCc3ccc(F)cc3F)C2)ccc1F` (some centres unmarked) [Compound I-346], for which the IC50 in experiment [1] (setting [7]) is 0.1 to 1 µM; in experiment [2] (setting [8]) it was 0.01 to 0.1 µM; in experiment [3] (Homo sapiens, 168 h), 0.01 to 0.1 µM; in experiment [4] (Homo sapiens, 168 h) it was 0.1 to 1 µM; in experiment [5], less than 0.001 µM.

Regarding `CCc1cccc(-c2cnc(C(=O)NCCCCCNCC(=O)N3CCN(C(=O)c4cc(Cc5n[nH]c(=O)c6ccccc56)ccc4F)CC3)c(NC(=O)CNCc3cccc(C)c3)c2)c1` [Compound I-64], the IC50 in experiment [1] (setting [7]) was 0.1 to 1 µM; in experiment [2] (setting [8]), 0.1 to 1 µM; in experiment [3] (Homo sapiens, 168 h), 0.01 to 0.1 µM; in experiment [4] (Homo sapiens, 168 h), 0.1 to 1 µM; in experiment [5], less than 0.001 µM.

For `O=C(N[C@@H](C(=O)N1CCN(CC2CCN(CC(=O)N3CCN(C(=O)c4cc(Cc5n[nH]c(=O)c6ccccc56)ccc4F)CC3)CC2)CC1)C1CCCCC1)c1cccc([C@@H]2CCCN(C(=O)CNC3CC3)C2)c1` [Compound I-365], the IC50 was 0.1 to 1 µM in experiment [1] (setting [7]); 0.01 to 0.1 µM in experiment [2] (setting [8]); 0.01 to 0.1 µM in experiment [3] (Homo sapiens, 168 h); 1 to 10 µM in experiment [4] (Homo sapiens, 168 h); less than 0.001 µM in experiment [5].

On to `CCc1cccc(-c2cnc(C(=O)N3CCC(OC4CCN(CC(=O)N5CCN(C(=O)c6cc(Cc7n[nH]c(=O)c8ccccc78)ccc6F)CC5)CC4)CC3)c(NC(C)=O)c2)c1` [Compound I-404], for which the IC50 in experiment [1] (setting [7]) is 0.1 to 1 µM; in experiment [2] (setting [8]) it was 0.01 to 0.1 µM; in experiment [3] (Homo sapiens, 168 h) it was less than 0.01 µM; in experiment [4] (Homo sapiens, 168 h), 0.01 to 0.1 µM; in experiment [5] it was less than 0.001 µM.

In the case of `O=C(N[C@@H](C(=O)N1CCN(CC2CCN(CC(=O)N3CCN(C(=O)c4cc(Cc5n[nH]c(=O)c6ccccc56)ccc4F)CC3)CC2)CC1)C1CCCCC1)c1cccc(C2CCCN(C(=O)CNC3CC3)C2)c1` (some centres unmarked) [Compound I-183], the IC50 in experiment [1] (setting [7]) was 0.1 to 1 µM; in experiment [2] (setting [8]), 0.1 to 1 µM; in experiment [3] (Homo sapiens, 168 h), 0.01 to 0.1 µM; in experiment [4] (Homo sapiens, 168 h), 0.1 to 1 µM; in experiment [5] it was less than 0.001 µM.

As for `CCOc1cc(OC)ccc1CNCC(=O)N1CCC[C@H](c2cccc(C(=O)N[C@@H](C(=O)N3CCC(CN4CCN(CC(=O)N5CCN(C(=O)c6cc(Cc7n[nH]c(=O)c8ccccc78)ccc6F)CC5)CC4)CC3)C3CCCCC3)c2)C1` [Compound I-168], the IC50 in experiment [1] (setting [7]) was 0.01 to 0.1 µM; in experiment [2] (U2OS cells, 6 hrs, 2 mM H2O2), 0.1 to 1 µM; in experiment [3], less than 0.01 µM; in experiment [4], 0.01 to 0.1 µM; in experiment [5] it was less than 0.001 µM.

Take `O=C(N[C@@H](C(=O)N1CCN(CC(=O)N2CCN(C(=O)c3cc(Cc4n[nH]c(=O)c5ccccc45)ccc3F)CC2)CC1)C1CCCCC1)c1cccc(C2CCCN(C(=O)CNCc3ccc(F)cc3F)C2)c1` (some centres unmarked) [Compound I-963]: the IC50 is 0.1 to 1 µM in experiment [2] (Homo sapiens, U2OS, 6 h); 0.1 to 1 µM in experiment [3] (Homo sapiens, 168 h); 0.1 to 1 µM in experiment [4] (Homo sapiens, 168 h); less than 0.001 µM in experiment [5].

With `CC1(C(=O)N2CCC(c3cccc(C(=O)N[C@@H](C(=O)N4CCC(OC5CCN(CC(=O)N6CCN(C(=O)c7cc(Cc8n[nH]c(=O)c9ccccc89)ccc7F)CC6)CC5)CC4)C4CCCCC4)c3F)CC2)CC1` [Compound I-883], the IC50 was 0.01 to 0.1 µM in experiment [1] (setting [7]); 0.01 to 0.1 µM in experiment [2] (setting [8]); less than 0.01 µM in experiment [3] (Homo sapiens, 168 h); 0.01 to 0.1 µM in experiment [4] (Homo sapiens, 168 h); 0.01 to 0.1 µM in experiment [6].

For the compound `CC(C)(C)C(=O)N1CCC[C@@H](c2cccc(C(=O)N[C@@H](C(=O)N3C4CCC3CC(OC3CCN(CC(=O)N5CCN(C(=O)c6cc(Cc7n[nH]c(=O)c8ccccc78)ccc6F)CC5)CC3)C4)C3CCCCC3)c2F)C1` (some centres unmarked) [Compound I-971], the IC50 in experiment [1] (setting [7]) is 0.01 to 0.1 µM; in experiment [2] (setting [8]) it was 0.01 to 0.1 µM; in experiment [3] (Homo sapiens, 168 h), less than 0.01 µM; in experiment [4] (Homo sapiens, 168 h), 0.01 to 0.1 µM; in experiment [6], 0.1 to 1 µM.

On to `O=C(CN1CCC(OC2CCN(C(=O)c3c(F)cc(-c4cccnn4)cc3F)CC2)CC1)N1CCN(C(=O)c2cc(Cc3n[nH]c(=O)c4ccccc34)ccc2F)CC1` [Compound I-771], for which the IC50 in experiment [1] (setting [7]) was 0.01 to 0.1 µM; in experiment [2] (setting [8]) it was less than 0.01 µM; in experiment [3] (Homo sapiens, 168 h) it was less than 0.01 µM; in experiment [4] (Homo sapiens, 168 h), 0.1 to 1 µM; in experiment [6] it was 0.1 to 1 µM.
